{"source": "ChEMBL document CHEMBL1201862", "about": "“PubChem BioAssay data set” (2004)", "key": {"[1]": {"target": "Intestinal-type alkaline phosphatase (Mus musculus, UniProt P24822)", "sequence (P24822 whole entry)": "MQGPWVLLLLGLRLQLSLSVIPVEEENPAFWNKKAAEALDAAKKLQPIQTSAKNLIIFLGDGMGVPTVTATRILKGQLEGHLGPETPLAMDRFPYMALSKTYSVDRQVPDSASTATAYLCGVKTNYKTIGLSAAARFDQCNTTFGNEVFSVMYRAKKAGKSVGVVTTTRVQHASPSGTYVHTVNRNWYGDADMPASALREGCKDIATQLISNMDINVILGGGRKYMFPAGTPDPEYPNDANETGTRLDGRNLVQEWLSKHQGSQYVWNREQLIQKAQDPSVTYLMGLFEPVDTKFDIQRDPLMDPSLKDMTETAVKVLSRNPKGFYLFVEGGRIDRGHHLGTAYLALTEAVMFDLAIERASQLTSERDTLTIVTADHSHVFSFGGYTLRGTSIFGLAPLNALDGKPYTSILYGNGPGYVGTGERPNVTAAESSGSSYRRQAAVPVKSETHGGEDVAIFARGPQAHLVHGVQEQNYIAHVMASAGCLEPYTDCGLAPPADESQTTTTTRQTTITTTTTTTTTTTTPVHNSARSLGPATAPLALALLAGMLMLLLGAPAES", "assay": "PubChem AID 488785", "format": "functional"}, "[2]": {"assay": "inhibitors of intracellular T. cruzi replication, confirmation, NIH3T3 host cells, beta-gal luminescence (AID 2044);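 also: luminescent beta-galactosidase reporter signal from transgenic T. cruzi replicating inside host cells; inhibitors lower the luminescence signal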", "format": "functional, cell-based"}, "[3]": {"target": "Intestinal-type alkaline phosphatase (Homo sapiens, UniProt P09923)", "sequence (P09923 whole entry)": "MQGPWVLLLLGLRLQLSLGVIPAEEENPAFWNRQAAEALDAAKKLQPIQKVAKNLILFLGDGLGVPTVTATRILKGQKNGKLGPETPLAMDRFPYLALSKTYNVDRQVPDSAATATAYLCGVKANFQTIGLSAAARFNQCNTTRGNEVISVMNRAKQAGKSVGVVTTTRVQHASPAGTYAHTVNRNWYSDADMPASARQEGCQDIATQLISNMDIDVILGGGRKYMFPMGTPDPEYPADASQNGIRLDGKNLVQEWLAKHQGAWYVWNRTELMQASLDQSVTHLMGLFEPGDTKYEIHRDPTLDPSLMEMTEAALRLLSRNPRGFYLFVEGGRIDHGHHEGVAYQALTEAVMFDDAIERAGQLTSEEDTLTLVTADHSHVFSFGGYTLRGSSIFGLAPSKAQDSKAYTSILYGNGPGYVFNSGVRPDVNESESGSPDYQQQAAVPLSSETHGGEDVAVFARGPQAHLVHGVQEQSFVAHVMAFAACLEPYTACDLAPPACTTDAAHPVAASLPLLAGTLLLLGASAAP", "assay": "activation of human intestinal alkaline phosphatase – biochemical, dose response (AID 488873)", "format": "functional"}, "[4]": {"target": "T1, Alkaline phosphatase, tissue-nonspecific isozyme (Homo sapiens, UniProt P05186)", "T1 sequence (P05186 whole entry)": "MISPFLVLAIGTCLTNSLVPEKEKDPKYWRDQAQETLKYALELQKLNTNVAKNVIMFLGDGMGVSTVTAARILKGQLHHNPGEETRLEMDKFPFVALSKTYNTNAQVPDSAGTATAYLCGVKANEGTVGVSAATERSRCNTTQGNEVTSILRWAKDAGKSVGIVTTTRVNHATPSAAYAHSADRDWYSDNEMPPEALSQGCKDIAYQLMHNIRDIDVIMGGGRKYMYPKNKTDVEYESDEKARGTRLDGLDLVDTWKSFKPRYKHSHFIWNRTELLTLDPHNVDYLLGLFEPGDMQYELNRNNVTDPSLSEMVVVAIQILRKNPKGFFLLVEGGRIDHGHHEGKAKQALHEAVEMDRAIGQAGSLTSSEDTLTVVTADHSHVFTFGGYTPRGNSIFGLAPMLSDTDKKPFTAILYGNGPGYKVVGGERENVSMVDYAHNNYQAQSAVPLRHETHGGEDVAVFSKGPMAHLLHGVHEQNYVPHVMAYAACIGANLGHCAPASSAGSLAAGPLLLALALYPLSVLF"}, "[5]": {"target": "T1, Alkaline phosphatase, tissue-nonspecific isozyme", "assay": "TNAP enzyme inhibition by screening hits, dose response, selectivity assay for mouse IAP inhibitor project, biochemical, human TNAP, uHTS hits (AID 488906)", "format": "functional"}, "[6]": {"assay": "cytotoxicity toward NIH3T3 fibroblasts, dose response, counter-screen, cell-based, ATP luminescence, mouse fibroblasts (AID 2010);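 also: cells exposed to compound for about 90 hours before reading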", "format": "functional"}, "[7]": {"assay": "cytotoxicity in HEK-293T cells, dose response, cytotoxicity control for TCR NF-kB inhibitor project, luminescence, T-cell screen hits (AID 489026);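 also: cells exposed to compound about 14 hours before the viability readout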", "format": "functional, cell-based"}, "[8]": {"target": "Melanin-concentrating hormone receptor 1 (Homo sapiens, UniProt Q99705)", "sequence (Q99705 whole entry)": "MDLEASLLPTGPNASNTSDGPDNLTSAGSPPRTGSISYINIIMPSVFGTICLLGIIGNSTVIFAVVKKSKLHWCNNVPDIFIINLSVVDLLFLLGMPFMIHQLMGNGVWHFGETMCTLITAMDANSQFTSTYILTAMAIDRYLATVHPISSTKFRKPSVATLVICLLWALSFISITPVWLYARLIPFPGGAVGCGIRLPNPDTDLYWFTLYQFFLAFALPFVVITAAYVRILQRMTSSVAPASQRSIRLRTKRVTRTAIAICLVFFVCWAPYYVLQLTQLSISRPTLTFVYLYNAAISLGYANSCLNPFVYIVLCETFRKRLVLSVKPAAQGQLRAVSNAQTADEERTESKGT", "assay": "Fluorescence-based counterscreen for antagonists of the G-protein coupled receptor 7 (GPR7): cell-based high throughput dose response assay to identify antagonists of the melanin-concentrating hormone receptor 1 (MCHR1).", "format": "functional"}, "[9]": {"target": "T2, Heat shock factor protein 1 (Mus musculus, UniProt P38532)", "T2 sequence (P38532 whole entry)": "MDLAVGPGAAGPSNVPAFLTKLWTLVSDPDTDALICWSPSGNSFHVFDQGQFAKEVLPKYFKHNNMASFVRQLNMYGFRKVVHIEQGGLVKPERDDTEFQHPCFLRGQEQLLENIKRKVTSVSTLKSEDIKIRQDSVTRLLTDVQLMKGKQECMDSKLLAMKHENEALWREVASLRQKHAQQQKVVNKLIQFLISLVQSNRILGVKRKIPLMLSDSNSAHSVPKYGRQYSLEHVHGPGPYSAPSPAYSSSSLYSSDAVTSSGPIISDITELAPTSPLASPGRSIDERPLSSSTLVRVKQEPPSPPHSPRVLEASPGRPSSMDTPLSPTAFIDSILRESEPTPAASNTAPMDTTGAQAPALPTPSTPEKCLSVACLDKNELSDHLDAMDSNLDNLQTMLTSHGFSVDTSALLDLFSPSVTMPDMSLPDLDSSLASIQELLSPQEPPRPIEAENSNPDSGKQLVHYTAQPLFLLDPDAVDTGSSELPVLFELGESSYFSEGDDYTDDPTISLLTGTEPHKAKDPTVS", "assay": "inhibition of MG132-induced HSE-luciferase signal, confirmation, cell-based, NIH3T3, luminescence, dose retest (AID 2382);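 also: NIH3T3 fibroblasts with HSF1-driven luciferase reporter stressed by proteasome inhibitor MG132; luminescence from HSF1-driven luciferase expression after 8 hours of MG132 stress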", "format": "functional"}, "[10]": {"target": "Neuropeptides B/W receptor type 1 (Homo sapiens, UniProt P48145)", "sequence (P48145 whole entry)": "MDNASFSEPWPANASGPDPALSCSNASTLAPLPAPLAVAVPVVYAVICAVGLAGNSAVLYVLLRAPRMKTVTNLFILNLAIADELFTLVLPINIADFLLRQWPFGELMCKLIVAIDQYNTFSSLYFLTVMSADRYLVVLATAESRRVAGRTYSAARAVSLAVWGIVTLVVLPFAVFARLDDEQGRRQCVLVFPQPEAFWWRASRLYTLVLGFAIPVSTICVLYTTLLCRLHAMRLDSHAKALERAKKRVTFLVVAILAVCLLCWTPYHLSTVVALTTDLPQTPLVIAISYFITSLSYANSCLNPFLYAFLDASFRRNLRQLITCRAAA", "assay": "Fluorescence-based dose response cell-based high throughput screening assay to identify antagonists of the G-protein coupled receptor 7 (GPR7). [Related pubchem assays: 1952 (Screening assay (GPR7 antagonists).), 1880 (Summary AID.)]", "format": "functional"}, "[11]": {"assay": "enhancers of respiration in Yfh1-depleted yeast, dose response, Friedreich's ataxia, plus single-dose screen (AID 1465);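 also: yeast depleted of Yfh1p frataxin homolog grown on glycerol needing respiration; WST-1 tetrazolium dye reduction as measure of cellular dehydrogenase metabolic activity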", "format": "functional"}, "Wee1-like protein kinase": {"target": "Wee1-like protein kinase (Homo sapiens, UniProt P30291)", "sequence (P30291 whole entry)": "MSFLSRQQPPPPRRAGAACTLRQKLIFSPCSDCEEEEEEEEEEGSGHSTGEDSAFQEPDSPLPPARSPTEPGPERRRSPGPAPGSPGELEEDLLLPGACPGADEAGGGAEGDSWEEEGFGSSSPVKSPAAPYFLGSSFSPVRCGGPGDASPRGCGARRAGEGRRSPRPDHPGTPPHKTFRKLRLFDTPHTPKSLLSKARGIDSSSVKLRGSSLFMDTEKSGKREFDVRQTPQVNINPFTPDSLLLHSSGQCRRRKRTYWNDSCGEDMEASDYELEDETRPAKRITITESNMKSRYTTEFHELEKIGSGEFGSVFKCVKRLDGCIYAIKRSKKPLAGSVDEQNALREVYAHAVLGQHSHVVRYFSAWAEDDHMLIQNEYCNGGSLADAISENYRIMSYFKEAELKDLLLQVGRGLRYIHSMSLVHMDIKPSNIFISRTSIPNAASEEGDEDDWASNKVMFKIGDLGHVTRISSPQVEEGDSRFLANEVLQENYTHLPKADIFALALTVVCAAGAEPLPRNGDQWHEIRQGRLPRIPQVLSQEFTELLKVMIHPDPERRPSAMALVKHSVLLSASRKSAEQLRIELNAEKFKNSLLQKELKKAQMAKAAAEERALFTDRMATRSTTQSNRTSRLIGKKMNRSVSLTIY", "assay": "Dose Response Cell-based Assay for Inhibitors of Wee1 Degradation. [Related pubchem assays: 1410, 1321 ]", "format": "functional"}, "[12]": {"target": "G2/mitotic-specific cyclin-B1 (Homo sapiens, UniProt P14635)", "sequence (P14635 whole entry)": "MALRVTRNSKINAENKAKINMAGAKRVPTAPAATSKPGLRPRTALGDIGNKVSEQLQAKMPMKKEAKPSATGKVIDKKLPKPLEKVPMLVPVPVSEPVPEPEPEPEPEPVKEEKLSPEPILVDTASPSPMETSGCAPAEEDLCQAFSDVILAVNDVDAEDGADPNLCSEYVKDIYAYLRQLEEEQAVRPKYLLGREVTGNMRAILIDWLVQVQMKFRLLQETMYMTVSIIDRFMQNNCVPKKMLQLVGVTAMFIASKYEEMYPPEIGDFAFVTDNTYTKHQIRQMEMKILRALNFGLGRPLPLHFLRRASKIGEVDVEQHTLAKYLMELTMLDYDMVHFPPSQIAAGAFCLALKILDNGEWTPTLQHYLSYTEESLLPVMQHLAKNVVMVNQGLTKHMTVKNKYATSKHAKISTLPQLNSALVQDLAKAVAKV", "assay": "Counterscreen assay for inhibitors of Wee1 degradation: dose response cell-based assay to identify inhibitors of cyclin B degradation. [Related pubchem assays: 1410, 1321 ]", "format": "functional"}, "Beta-galactosidase": {"target": "Beta-galactosidase (Escherichia coli, UniProt Q8VNN2)", "sequence (Q8VNN2 whole entry)": "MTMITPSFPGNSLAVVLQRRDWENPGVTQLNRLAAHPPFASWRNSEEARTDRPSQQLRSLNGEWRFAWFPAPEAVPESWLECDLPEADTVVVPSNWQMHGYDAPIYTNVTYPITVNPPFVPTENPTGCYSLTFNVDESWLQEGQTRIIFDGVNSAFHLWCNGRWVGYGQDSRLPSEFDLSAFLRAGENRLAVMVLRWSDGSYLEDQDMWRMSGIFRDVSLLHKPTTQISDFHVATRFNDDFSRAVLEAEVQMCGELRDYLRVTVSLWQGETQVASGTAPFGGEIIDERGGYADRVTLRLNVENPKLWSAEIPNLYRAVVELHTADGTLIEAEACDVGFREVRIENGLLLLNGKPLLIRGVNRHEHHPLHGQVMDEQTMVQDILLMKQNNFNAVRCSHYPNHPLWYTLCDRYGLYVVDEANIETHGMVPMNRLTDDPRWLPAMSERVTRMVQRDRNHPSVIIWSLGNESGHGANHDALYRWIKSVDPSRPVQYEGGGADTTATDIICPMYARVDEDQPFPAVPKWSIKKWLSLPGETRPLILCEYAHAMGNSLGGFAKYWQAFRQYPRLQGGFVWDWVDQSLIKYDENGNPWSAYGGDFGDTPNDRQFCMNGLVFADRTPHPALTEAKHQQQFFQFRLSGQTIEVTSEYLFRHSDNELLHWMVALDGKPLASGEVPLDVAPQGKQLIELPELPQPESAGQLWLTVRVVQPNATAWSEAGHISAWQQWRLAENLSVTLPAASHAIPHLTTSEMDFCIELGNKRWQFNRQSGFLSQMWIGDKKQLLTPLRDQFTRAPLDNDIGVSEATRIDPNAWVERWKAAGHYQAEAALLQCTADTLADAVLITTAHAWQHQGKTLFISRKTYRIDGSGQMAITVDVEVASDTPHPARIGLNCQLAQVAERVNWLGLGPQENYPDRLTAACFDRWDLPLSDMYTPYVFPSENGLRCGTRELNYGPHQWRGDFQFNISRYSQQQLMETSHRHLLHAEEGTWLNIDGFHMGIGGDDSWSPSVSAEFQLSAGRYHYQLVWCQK", "assay": "Dose response counterscreen for EBI2 assay utilizing the enzyme, b-galactosidase.", "format": "functional"}, "[13]": {"assay": "cytotoxicity in KRAS-transformed pancreatic duct cells, primary screen, cell-based, fluorescence, HTS (AID 431);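 also: cell line used: HPDE-C7K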", "format": "functional", "details": "Homo sapiens"}, "Protein Rev": {"target": "Protein Rev (Human immunodeficiency virus type 1 group M subtype B (isolate WMJ22)(HIV-1), UniProt P05866)", "sequence (P05866 whole entry)": "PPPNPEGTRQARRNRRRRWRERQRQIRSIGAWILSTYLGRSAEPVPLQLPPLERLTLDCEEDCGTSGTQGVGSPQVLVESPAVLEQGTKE", "assay": "HIV-1 Rev-RRE RNA binding disruptors, dose response, biochemical, protein-RNA interaction (AID 842)", "set-up": "species or system Human immunodeficiency virus 1"}, "[14]": {"assay": "cytotoxicity in HPDE-C7 cells, cell-based, fluorescence, HTS (AID 430)", "format": "functional", "details": "Homo sapiens"}}, "note": "Active and inactive are the calls of the source."}
{"smiles": "CC(C)c1ccc(NC(=O)NC2CCN(CC(=O)Nc3cccc4ccccc34)CC2)cc1", "values": [{"measurement": "IC50", "setting": "[1]", "value": "10.8 µM (active)"}, {"measurement": "EC50", "setting": "[2]", "value": "1.88 µM (active)"}, {"measurement": "EC50", "setting": "[3]", "value": "> 100 µM (inactive)"}, {"measurement": "EC50", "setting": "[4]", "value": "> 100 µM (not active)"}, {"measurement": "IC50", "setting": "[5]", "value": "59.3 µM (active)"}, {"measurement": "EC50", "setting": "[6]", "value": "> 60 µM (inconclusive)"}]}
{"smiles": "COc1ccccc1C(=O)N(CCC1CCCN1C)c1nc2ccccc2s1", "note": "(configuration not stated)", "values": [{"measurement": "IC50", "setting": "[7]", "value": "> 80 µM (inactive)"}, {"measurement": "IC50", "setting": "[8]", "value": "29.7 µM (not active)"}, {"measurement": "EC50", "setting": "[9]", "value": "< 0.16 µM (active)"}, {"measurement": "IC50", "setting": "[10]", "value": "21.4 µM (not active)"}]}
{"smiles": "CCN(CC)c1ccc2cc(C(N)=O)c(=N)oc2c1", "values": [{"measurement": "EC50", "setting": "[11]", "value": "> 100 µM (active)"}]}
{"smiles": "COC(=O)C1CCN(C(=O)/C=C/c2ccc(OC)cc2)CC1", "values": [{"measurement": "EC50", "setting": "Wee1-like protein kinase", "value": "> 49.7 µM (not active)"}, {"measurement": "EC50", "setting": "[12]", "value": "> 49.7 µM (not active)"}, {"measurement": "IC50", "setting": "Beta-galactosidase", "value": "> 80 µM (inactive)"}]}
{"smiles": "CN(C)CC(O)COc1ccc(-c2ccc(C#N)cc2)cc1", "note": "(configuration not stated)", "values": [{"measurement": "EC50", "setting": "[13]", "value": "> 20 µM (not active)"}, {"measurement": "IC50", "setting": "Protein Rev", "value": "> 79.4 µM (not active)"}, {"measurement": "EC50", "setting": "[14]", "value": "> 20 µM (not active)"}]}
